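Assay format: 96-well plates, 48-hour exposure. Here, GI50 denotes the concentration required for 50% inhibition of growth.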 Active and inactive are the calls of the source. Cut-off read from the data, not from the text of the source: active = GI50 up to about 1.1 µM and inactive = higher.
How the values were obtained:
Assay in all cases: DTP human tumour cell line panel, 48 h
SNB-75 = test system: SNB-75
NCI-H226 = test system: NCI-H226
Malme-3M = test system: Malme-3M
SW-620 = test system: SW-620
UACC-62 = test system: UACC-62
HCT-15 = test system: HCT-15
HOP-92 = test system: HOP-92
TK-10 = test system: TK-10
EKVX = test system: EKVX
IGROV-1 = test system: IGROV-1
HT-29 = test system: HT-29
RPMI-8226 = test system: RPMI-8226
U-251 = test system: U-251
MCF7 = test system: MCF7
BT-549 = test system: BT-549
CCRF-CEM = test system: CCRF-CEM
COLO 205 = test system: COLO 205
HOP-62 = test system: HOP-62
HCC 2998 = test system: HCC 2998

SMILES | GI50 (SNB-75) | GI50 (NCI-H226) | GI50 (Malme-3M) | GI50 (SW-620) | GI50 (UACC-62) | GI50 (HCT-15) | GI50 (HOP-92) | GI50 (TK-10) | GI50 (EKVX) | GI50 (IGROV-1) | GI50 (HT-29) | GI50 (RPMI-8226) | GI50 (U-251) | GI50 (MCF7) | GI50 (BT-549) | GI50 (CCRF-CEM) | GI50 (COLO 205) | GI50 (HOP-62) | GI50 (HCC 2998)
CCOC(=O)c1cnc2[nH]ccn2c1=O | > 10 µM (inactive) | > 10 µM (inactive) | > 10 µM (inactive) | > 10 µM (inactive) | > 10 µM (inactive) | > 10 µM | > 10 µM (inactive) | > 10 µM (inactive) | > 10 µM (inactive) | > 10 µM (inactive) | > 10 µM (inactive) | > 10 µM (inactive) | > 10 µM (inactive) | > 10 µM (inactive) | > 10 µM (inactive) | > 10 µM (inactive) | > 10 µM (inactive) | > 10 µM (inactive) | 
Cn1nc2ccc([N+](=O)[O-])cc2[n+]1[O-] | > 100 µM (inactive) | > 100 µM (inactive) | > 100 µM (inactive) |  | > 100 µM (inactive) | > 100 µM |  | > 100 µM (inactive) | > 100 µM (inactive) | > 100 µM (inactive) | > 100 µM (inactive) |  | > 100 µM (inactive) | > 100 µM (inactive) | > 100 µM (inactive) | > 100 µM (inactive) | > 100 µM (inactive) | > 100 µM (inactive) | > 100 µM (inactive)
O=C(c1ccccc1Cl)n1oc2ccccc2c1=O | 51.1 µM (inactive) | 67 µM (inactive) | > 100 µM (inactive) | 57 µM (inactive) | > 100 µM (inactive) | 85.5 µM | 25.2 µM (inactive) | > 100 µM (inactive) | > 100 µM (inactive) | 69.2 µM (inactive) | 60.4 µM (inactive) | 28.1 µM (inactive) | > 100 µM (inactive) | 51.1 µM (inactive) | 84.5 µM (inactive) | 27.5 µM (inactive) | 35.7 µM (inactive) | > 100 µM (inactive) | 
O=C(O)CSc1ccn(Cc2ccccc2)c1 | > 100 µM (inactive) | > 100 µM (inactive) | > 100 µM (inactive) | > 100 µM (inactive) | > 100 µM (inactive) | > 100 µM | > 100 µM (inactive) | > 100 µM (inactive) | > 100 µM (inactive) | > 100 µM (inactive) | > 100 µM (inactive) | > 100 µM (inactive) | > 100 µM (inactive) | > 100 µM (inactive) | > 100 µM (inactive) | > 100 µM (inactive) | > 100 µM (inactive) | > 100 µM (inactive) | 
COC(CNC(=O)C(C)NC(=O)CCc1ccccc1)OC (stereo unspecified) | > 100 µM (inactive) | > 100 µM (inactive) | > 100 µM (inactive) | > 100 µM (inactive) | > 100 µM (inactive) | > 100 µM | > 100 µM (inactive) | > 100 µM (inactive) | > 100 µM (inactive) | > 100 µM (inactive) | > 100 µM (inactive) | > 100 µM (inactive) | > 100 µM (inactive) | > 100 µM (inactive) | > 100 µM (inactive) | > 100 µM (inactive) | > 100 µM (inactive) |  | 
S=C(Nc1ccccn1)Nc1ccccc1Cl | > 38.5 µM (inactive) |  | > 48.2 µM (inactive) | > 80.5 µM (inactive) | > 52.4 µM (inactive) | 59.8 µM |  | > 68.7 µM (inactive) | 8.51 µM (inactive) | > 36.1 µM (inactive) | > 61.1 µM (inactive) | > 100 µM (inactive) | 48.6 µM (inactive) | 5.98 µM (inactive) | 52.8 µM (inactive) | > 100 µM (inactive) | > 100 µM (inactive) | 52 µM (inactive) | > 100 µM (inactive)
CC(=O)CCC(=O)C(=[N+]=[N-])S(=O)(=O)c1ccccc1 | > 100 µM (inactive) |  | > 100 µM (inactive) | > 100 µM (inactive) | > 100 µM (inactive) | > 100 µM |  | > 100 µM (inactive) | > 100 µM (inactive) | > 100 µM (inactive) | > 100 µM (inactive) | > 100 µM (inactive) | > 100 µM (inactive) | > 100 µM (inactive) | > 100 µM (inactive) | > 100 µM (inactive) | > 100 µM (inactive) | > 100 µM (inactive) | > 100 µM (inactive)

From ChEMBL document CHEMBL1201862, “PubChem BioAssay data set” (2004)
